Values of other authors, collected in patent EP4470382A1, “PLANT EXTRACT AND METHODS COMPRISING THEREOF” (FUNDACION UNIVERSITARIA SAN ANTONIO (UCAM), priority 2023, dated 2024).

Details: activity registered in BIOPEP for the sequence

Substance	Activity
YQKFPQY	ACE inhibitor
LLYQEPVLGPVRGPFPIIV [peptide derived from bovine b-casein (1-28), identified in bovine casein hydrolysate, BIOPEP ID 8174]	immunomodulat ing
RPKHPIKHQGLPQEVLNENLLRF [Isracidin - antiviral, identified in bovine casein hydrolysate, BIOPEP ID 9530]	antiviral
SQSKVLPVPQKAVPYPQ [Antioxidative peptide identified in bovine casein hydrolysate, BIOPEP ID 9907]	antioxidative
VYQHQKAMKPWIQPKTKVIPYVRYL [(fr. 183-207) of bovine alpha s2-casein, identified in bovine casein hydrolysate, BIOPEP ID 5469]	antibacterial
